Broadly, the EC50 is the concentration at which the effect is half-maximal.

The assay concerns the target T1, TUFM (mitochondrial elongation factor Tu) (Mus musculus, UniProt Q8BFR5).
T1 construct: endogenous protein in 3T3-L1 cell lysate
Put plainly: DARTS (pronase protection) immunoblot, dose-dependent, and DARTS LC-MS/MS in 3T3-L1 lysate. In kind it is biochemical. A general note: In western blotting, separated proteins are transferred to a membrane and probed.

The compound `COc1ccc(-c2oc3cc(O)cc(O)c3c(=O)c2O)cc1` [Kaem, kaempferide] showed an EC50 of 14.4 µM.

For the origin of these results see article PMC7782552, “Activation of mitochondrial TUFM ameliorates metabolic dysregulation through coordinating autophagy induction” (Communications Biology, 2021).
